From patent publication US7687079B2, “Methods of treating ileus” (priority 2002, dated 2010) come the findings set out here.

Common to all, as to format: in vivo, mouse
The test system of test [1] is mice subjected to surgical manipulation of the small intestine. The test can be described thus: intestinal transit of fluorescein-labeled dextran after intestinal manipulation (IM). The text has this:
Surgical Manipulation. Mice were anesthetized with inhaled isoflurane and the abdomen opened by midline laparotomy. The small intestine was eventrated and gently compressed along its entire length using moistened sterile cotton applicators. This procedure is designed to simulate “running” of the bowel commonly performed during abdominal surgery in the clinical setting. The bowel was repositioned in the abdominal cavity and the incision closed by two layers of continuous sutures. The duration of the procedure was approximately 15 minutes and the animals moved freely about their cage within 20 minutes of withdrawal of anesthetic.
CO Inhalation Treatment. Mice housed in cages were placed in plexiglass chambers that were continuously ventilated with air or with air containing CO (250 ppm). […]
Mice were anesthetized and killed by exsanguination at the end of the 24-hour chamber treatment with CO or room air. In vitro circular muscle mechanical activity was measured as previously described in Eskandari et al. (Am. J. Physiol. 273:G727-G734 (1997)). […] Contractile activity was calculated by integrating the area under the trace. […] Intestinal transit was measured in controls and manipulated animals 24 hours postoperatively by evaluating the intestinal distribution of a non-absorbable fluorescein-labeled dextran (MW 70,000). […]

In test [2] the test system is HO-1 mRNA. In words: HO-1 mRNA in muscularis after IM (real time RT-PCR). How it is done:
Pro- and anti-inflammatory gene expression was determined by real time RT-PCR. The small intestinal muscularis externa was collected at 4 time points (3, 6, 12, and 24 hr) postoperatively and snap frozen in liquid nitrogen. Total RNA extraction was performed using the guanidium-thiocyanate phenol-chloroform extraction method as described in Eskandari et al. (Id.) RNA pellets were resuspended in RNA-secure resuspension solution (Ambion Inc., Austin, Tex.), followed by removal of potential contaminating DNA by treatment with DNase I (DNA-Free Kit, Ambion Inc., Austin, Tex.). Equal aliquots (5 μg) of total RNA from each sample were quantified by spectrophotometry (wavelength […]). Peak mRNA expression was quantified in duplicate by SYBR Green two-step, real-time RT-PCR. β-actin was used as the endogenous reference. Aliquoted RNA (40 ng) was subjected to first-strand complementary DNA (cDNA) synthesis using random hexamers (PE applied Biosystems, Foster City, Calif.) and Super Script II (Life Technologies, Rockville, Md.). Primers were taken from the literature or designed according to published sequences (Table 3). PCR reaction mixture was prepared using SYBR Green PCR Core Reagents (PE Applied Biosystems). Each sample was estimated in duplicate using the conditions recommended by the manufacturer. Real-time PCR data were plotted as the ΔRn fluorescence signal versus the cycle number. An arbitrary threshold was set to the midlinear portion of the log ΔRn cycle plot. The threshold cycle (CT) is defined as the cycle number at which the ΔRn, crosses this threshold. Quantification of mRNA expression was normalized to β-actin and calculated relative to control using the comparative CT method.
To exclude PCR amplification of contaminating genomic DNA, RT-negative controls (samples containing RNA which was not reverse transcribed) were included in each PCR reaction. Melting curve analyses were performed for each reaction to ensure amplification of specific product. […] PCR amplification efficiency of each target cDNA was measured by determining the colinearity of serial dilutions. […]
On the technique in general: Quantitative PCR measures a nucleic acid by following its amplification.

The subject of test [3] is serum total nitrite. The test can be described thus: Example 3 serum total nitrite. Conditions: IM-CO mice. How it is done: Ileus was induced in mice by gentle manipulation of the small intestine. An incision was made to expose the abdominal cavity of the mouse, and bowel manipulation was performed by gentle poking and prodding of the small intestine (see, e.g., Schwarz et al., Gastroenterology 121(6):1354-1357 (2001)). The incision was subsequently closed, and analyses were performed 24 hours later. Mice were exposed to CO by inhalation (250 and 500 ppm) for 1 hour immediately prior to intestinal manipulation and during the entire 24-hour recovery period. Intestinal contractility was assessed in vitro by measuring circular muscle strip contractions in response to bethanechol (0.3-300 μM) and in vivo by determining intestinal transit from the distribution of orally-fed, fluorescein-labeled dextran and calculating geometric center as described in Example 1 above. HO-1 and IL-10 mRNA expression were determined by SYBR green real time RT-PCR from extracts of muscularis extemae, as described in Example 1 above. Release of nitric oxide (NO), a potent inhibitor of smooth muscle contractility, was estimated by measuring serum total nitrite, also described in Example 1 above.

Entries after “also recorded” stand apart in the source; their conditions may differ.

Consider `[C-]#[O+]` [CO, carbon monoxide], for which the “intestinal transit (GC, distribution of labeled dextran)” value in test [1] (IM + CO 250 ppm vs IM, 24 hours postoperatively) is listed as “significantly improved; also recorded: more distal distribution; also recorded: significant increase”. Moreover, the intestinal transit result in test [1] (unoperated mice, CO 250 ppm alone) is listed as “slight insignificant shift”. Further, the “HO-1 mRNA expression” value in test [2] (IM + CO vs IM, 3 hr but not 6 hr postoperatively) is on record as “significantly increased”. In addition, in test [2] (IM + CO vs IM, 3 hr postoperatively), the “HO-1 gene expression, increase over manipulation alone” value was determined as 300%. Also, in test [2] (unoperated control mice, CO alone, 6 hr time point), the HO-1 gene expression entry is reported as “small, though significant, increase; also recorded: increased”. For the same compound, in test [3], the serum nitrite came to 6.0 ± 1.6 µM.
